For 14 molecules, T/C results are on record in PubChem BioAssay AID200 (DTP/NCI, 2004).

For the test, the system named is B6C3F1 mice, B16 melanoma ip, median survival T/C. Kind of test: NCI In Vivo Anticancer Drug Screen. Data for tumor model B16 Melanoma (intraperitoneal) in B6C3F1 mice. To be noted: endpoint: median survival time, schedule: Q01DX009 (ip), higher = longer survival. In a few lines:
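Readout: survival or tumor size in treated mice relative to vehicle controls (T/C). Model uses transplantable tumors grown in mice.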

[1] abbreviates: dose: 3.12 mg/kg/injection, vehicle: saline with Tween-80.
Where [2] appears, read: dose: 6.25 mg/kg/injection, vehicle: saline with Tween-80.
[3] abbreviates: dose: 25.0 mg/kg/injection, vehicle: saline with Tween-80.
Setting [4] is: dose: 50.0 mg/kg/injection, vehicle: saline with Tween-80.
Where [5] appears, read: dose: 12.5 mg/kg/injection, vehicle: saline with Tween-80.
Setting [6] is: dose: 100.0 mg/kg/injection, vehicle: saline with Tween-80.
Setting [7] is: dose: 12.5 mg/kg/injection, vehicle: saline.
[8] abbreviates: dose: 25.0 mg/kg/injection, vehicle: saline.
Where [9] appears, read: dose: 50.0 mg/kg/injection, vehicle: saline.
[10] abbreviates: dose: 100.0 mg/kg/injection, vehicle: saline.
[11] abbreviates: dose: 100.0 mg/kg/injection, vehicle: water.
[12] abbreviates: dose: 200.0 mg/kg/injection, vehicle: saline with Tween-80.
[13] abbreviates: dose: 400.0 mg/kg/injection, vehicle: saline with Tween-80.
[14] abbreviates: dose: 6.25 mg/kg/injection, vehicle: saline.

Several values for one entry are separate records, joined by “and”; a condition that tells them apart may be missing. Identical values can stand only once. Toxic doses and inconclusive results are not listed.

As to `C=CCOc1cc2c(cc1C(C)c1ccc(OC)cc1)OCO2` (centres undefined), the T/C reads like this: (dose: 25.0 mg/kg/injection, vehicle: Klucel (hydroxypropylcellulose) (HPC)) 120 % of control; (dose: 50.0 mg/kg/injection, vehicle: Klucel (hydroxypropylcellulose) (HPC)) 124 % of control and 99 % of control; (dose: 100.0 mg/kg/injection, vehicle: Klucel (hydroxypropylcellulose) (HPC)) 108 % of control; (dose: 200.0 mg/kg/injection, vehicle: Klucel (hydroxypropylcellulose) (HPC)) 115 % of control.

Regarding `CCOC(=O)c1ccc(NC(=O)Nc2nc(C)cs2)cc1`, the T/C (dose: 12.5 mg/kg/injection, vehicle: distilled water + Tween-80) is 120 % of control and the T/C (dose: 25.0 mg/kg/injection, vehicle: distilled water + Tween-80) was 120 % of control.

In the case of `COc1ccc(-c2cc(=O)c3ccc4c(O)cccc4c3o2)cc1`, the T/C by setting is: under setting [1], 97 % of control; under setting [2], 88 % of control; under setting [3], 86 % of control; under setting [4], 93 % of control.

Turning to `COc1cccc2c1C(=O)c1c(O)c3c(c(O)c1C2=O)C[C@@](O)(C(=O)CO)C[C@@H]3OC1CC(N(C)C)C(O)C(C)O1` (some centres undefined), the T/C is 100 % of control (dose: 0.12 mg/kg/injection, vehicle: saline); 152 % of control and 166 % of control (dose: 0.5 mg/kg/injection, vehicle: saline); 153 % of control and 205 % of control (dose: 1.0 mg/kg/injection, vehicle: saline); 172 % of control and 261 % of control (dose: 2.0 mg/kg/injection, vehicle: saline).

For `CC(Br)C(=O)c1ccc2cc(Br)c3ccccc3c2c1` (centres undefined), the T/C under setting [1] is 98 % of control, the T/C under setting [2] is 100 % of control and the T/C under setting [5] is 90 % of control.

Consider `Cc1ccc2c(c1)Sc1ccc(N=NN(C)C)cc1N2C`, for which the T/C was 100 % of control (dose: 6.25 mg/kg/injection, vehicle: other); 114 % of control (dose: 12.5 mg/kg/injection, vehicle: other); 114 % of control (dose: 25.0 mg/kg/injection, vehicle: other); 115 % of control (dose: 50.0 mg/kg/injection, vehicle: other).

On to `CC(C)([NH-])CO.CC(C)([NH-])CO.[Cl][Cd][Cl]`, for which the T/C is 90 % of control (dose: 0.31 mg/kg/injection, vehicle: saline with Tween-80); 89 % of control (dose: 0.63 mg/kg/injection, vehicle: saline with Tween-80); 87 % of control (dose: 1.25 mg/kg/injection, vehicle: saline with Tween-80).

Consider `O=C(NC(Cc1ccccc1)C(=O)O)c1ccccc1` (centres undefined), for which the T/C is 112 % of control under setting [3]; 112 % of control and 90 % of control under setting [4]; 96 % of control and 100 % of control under setting [6].

Regarding `O=Cc1ccc(O)c(O)c1`, the T/C under setting [2] is 100 % of control; the T/C under setting [5] was 87 % of control; the T/C under setting [7] was 97 % of control; the T/C under setting [3] was 94 % of control and 97 % of control; the T/C under setting [8] is 99 % of control; the T/C (dose: 25.0 mg/kg/injection, vehicle: water) is 112 % of control and 100 % of control. In addition, the T/C is, setting by setting: under setting [4], 93 % of control; under setting [9], 89 % of control; (dose: 50.0 mg/kg/injection, vehicle: water) 112 % of control and 90 % of control; under setting [6], 89 % of control; under setting [10], 96 % of control; under setting [11], 95 % of control and 96 % of control. The T/C runs as follows: under setting [12], 89 % of control; (dose: 200.0 mg/kg/injection, vehicle: saline) 95 % of control; under setting [13], 92 % of control; (dose: 400.0 mg/kg/injection, vehicle: saline) 104 % of control.

`COc1ccc(O)cc1`: the T/C by setting is: under setting [5], 112 % of control; (dose: 18.0 mg/kg/injection, vehicle: saline with Tween-80) 98 % of control; under setting [3], 101 % of control; (dose: 30.0 mg/kg/injection, vehicle: saline with Tween-80) 106 % of control; under setting [4], 102 % of control; (dose: 89.0 mg/kg/injection, vehicle: saline with Tween-80) 106 % of control. Moreover, the T/C runs as follows: under setting [6], 104 % of control; (dose: 189.0 mg/kg/injection, vehicle: saline with Tween-80) 101 % of control; under setting [12], 105 % of control.

In the case of `O=C1c2ccccc2-c2c(Br)c3ccccc3c(=O)n21`, the T/C reads like this: under setting [4], 90 % of control; under setting [6], 101 % of control; under setting [12], 95 % of control; under setting [13], 94 % of control.

Turning to `CC(=O)N(C)c1ccc(Nc2cc(C)[nH]c3ccc4ncnc4c23)cc1`, the T/C was 122 % of control under setting [14]; 171 % of control and 178 % of control under setting [7]; 177 % of control and 198 % of control under setting [8]; 177 % of control and 184 % of control under setting [9].

As for `O=S(=O)(O)O`, the T/C is 121 % of control and 91 % of control (dose: 30.0 mg/kg/injection, vehicle: water); 108 % of control and 99 % of control (dose: 44.0 mg/kg/injection, vehicle: water); 95 % of control and 102 % of control (dose: 67.0 mg/kg/injection, vehicle: water); 97 % of control and 103 % of control under setting [11].

Take `O=C(/C=C(\Cl)C(=O)NO)NO`: the T/C reads like this: under setting [14], 100 % of control and 105 % of control; under setting [7], 91 % of control and 100 % of control; under setting [8], 97 % of control and 104 % of control; under setting [9], 108 % of control; under setting [10], 91 % of control.
